Reference: patent publication EP3335720A1, “C-DI-GMP BINDING PEPTIDES” (Universität Basel, priority 2016, dated 2018)
Like-named read-outs stand apart in the source and are kept apart here. Square brackets hold non-standard residues; d marks the D form. Peptide text beside a SMILES is read from it.

Experiments:
[1] = in vitro; type: in vitro ADME, P. aeruginosa PAO1
Description: P. aeruginosa PAO1 lysate, which was used to test peptide stability, was prepared by the following procedure. 500 ml of cells grown overnight at 37°C were harvested by centrifugation at 5000 rpm, 10 min at 4°C. Pellets were resuspended in 60 ml PBS (Gibco) and centrifuged at 5000 rpm, 10 min at 4°C. Pellets were resuspended again in 20 ml PBS and centrifuged at 5000 rpm, 10 min at 4°C. Cells were disrupted using high-pressure cell disrupter (Stansted Fluid Power). Cell lysate was separated from cell debris by centrifugation at 14,000 rpm for 20 min at 4°C. Lysate was diluted 10 fold to yield a protein content of about 1 mg/ml. The lysate was used for all experiments described below.
The stability of peptides was tested against P. aeruginosa PAO1 cell lysate. About 1 to 3 µg of peptides were incubated with 5 µl P. aeruginosa PAO1 cell lysate or PBS (untreated controls) at 37°C. After 2 hours, 6 µl of 2x SDS sample buffer was added to the samples and heated to 95°C for 5 min. Samples were analyzed on 10-20% Mini-PROTEAN tris-tricine gels (BIO-RAD #4563115) according to manufacturer's recommended protocol. Band intensities were quantified using the program ImageJ (Schneider, C. A., Rasband, W. S. and Eliceiri, K. W. 2012. NIH Image to ImageJ: 25 years of image analysis. Nature methods. 9: 671-675).

[2] = system: c-di-GMP; assay: Binding affinity of peptides to c-di-GMP by isothermal titration calorimetry (ITC); details: for binding affinity to c-di-GMP, in words: compared to the core sequence / peptide of SEQ ID NO: 12; for Kd: 15°C, pH 8.0, read-out: Dissociation constant; for decrease of c-di-GMP binding affinity compared to the peptide of SEQ ID NO: 12: single amino acid deletion
Description: Binding affinities of peptides to c-di-GMP were measured using isothermal titration calorimetry (ITC) on a VP-ITC MicroCalorimeter (MicroCal, Northampton, MA, USA). Peptides, c-di-GMP and buffer (50 mM Tris-HCl, pH 8.0, 100 mM NaCl) were degassed for 15 min prior to filling into sample cell and syringe. All experiments were carried out at a temperature of 15°C. The data were evaluated using ITC Data Analysis in ORIGIN provided by the manufacturer.

[3] = Table 4, deletion of single amino acid

| Compound | binding affinity to c-di-GMP, in words [2] | also measured |
| --- | --- | --- |
| C[C@H](NC(=O)[C@H](CO)NC(=O)[C@H](CC(N)=O)NC(=O)[C@H](Cc1ccccc1)NC(=O)[C@H](CCCNC(=N)N)NC(=O)[C@H](CCCNC(=N)N)NC(=O)[C@H](CCCNC(=N)N)NC(=O)[C@H](CC(=O)O)NC(=O)[C@H](N)CCCNC(=N)N)C(=O)N[C@@H](CC(=O)O)C(=O)N[C@@H](Cc1ccc(O)cc1)C(=O)N[C@@H](CCCCN)C(=O)NCC(=O)N1CCC[C@H]1C(=O)N[C@@H](CCCNC(=N)N)C(=O)N[C@@H](CCCNC(=N)N)C(=O)N[C@@H](CCCNC(=N)N)C(=O)N[C@@H](CCCCN)C(=O)N[C@@H](C)C(=O)N[C@@H](CC(=O)O)C(=O)N[C@H](C)C(N)=O [SEQ ID NO: 42, rDRRRFNSADYKGPRRRKADa-NH2] (H-[dR]DRRRFNSADYKGPRRRKAD[dA]-NH2) | – | Remaining peptide after 2 hours [1]: significant improvement |
| C[C@H](NC(=O)[C@H](CO)NC(=O)[C@H](CC(N)=O)NC(=O)[C@H](Cc1ccccc1)NC(=O)[C@H](CCCNC(=N)N)NC(=O)[C@H](CCCNC(=N)N)NC(=O)[C@H](CCCNC(=N)N)NC(=O)[C@H](N)CC(=O)O)C(=O)N[C@@H](CC(=O)O)C(=O)N[C@@H](Cc1ccc(O)cc1)C(=O)N[C@@H](CCCCN)C(=O)NCC(=O)N1CCC[C@H]1C(=O)N[C@@H](CCCNC(=N)N)C(=O)N[C@@H](CCCNC(=N)N)C(=O)N[C@@H](CCCNC(=N)N)C(=O)N[C@@H](CCCCN)C(=O)N[C@@H](C)C(=O)N[C@H](CC(=O)O)C(=O)O [compound 39] (H-[dD]RRRFNSADYKGPRRRKA[dD]-OH) | – | remaining at 2 h ([1]; cells or culture medium): 19% |
| Ac-ARRRFNSADYKGPRRRKAD-NH2 [SEQ ID NO: 13, AC-ARRRFNSADYKGPRRRKAD-NH2] | significantly reduced binding affinities | – |
| Ac-DARRFNSADYKGPRRRKAD-NH2 [SEQ ID NO: 14, AC-DARRFNSADYKGPRRRKAD-NH2] | significantly reduced binding affinities | – |
| Ac-DRARFNSADYKGPRRRKAD-NH2 [SEQ ID NO: 15, AC-DRARFNSADYKGPRRRKAD-NH2] | significantly reduced binding affinities | – |
| Ac-DRRAFNSADYKGPRRRKAD-NH2 [SEQ ID NO: 16, AC-DRRAFNSADYKGPRRRKAD-NH2] | sufficiently high to bind c-di-GMP | – |
| Ac-DRRFNSADYKGPRRRKAD-NH2 [SEQ ID NO: 32, AC-DRRFNSADYKGPRRRKAD-NH2] | Affinity decreased further | – |
| Ac-DRRFNSADYKGPRRRKAD-NH2 [compound 32] | – | Kd [2, 3]: 1040 nM |
| Ac-DRRRANSADYKGPRRRKAD-NH2 [compound 17] | – | Kd ([2]; Table 3, peptides with amino acid substitution): 140 nM |
| Ac-DRRRFASADYKGPRRRKAD-NH2 [SEQ ID NO: 18, AC-DRRRFASADYKGPRRRKAD-NH2] | does not significantly reduce binding affinity | – |
| Ac-DRRRFNAADYKGPRRRKAD-NH2 [SEQ ID NO: 19, AC-DRRRFNAADYKGPRRRKAD-NH2] | does not significantly reduce binding affinity | – |
| Ac-DRRRFNADYKGPRRRKAD-NH2 [SEQ ID NO: 35, AC-DRRRFNADYKGPRRRKAD-NH2] | – | decrease of c-di-GMP binding affinity compared to the peptide of SEQ ID NO: 12 [2]: 2 to 3 fold |
| Ac-DRRRFNADYKGPRRRKAD-NH2 [compound 35] | – | Kd [2, 3]: 440 nM |
| Ac-DRRRFNSAAYKGPRRRKAD-NH2 [SEQ ID NO: 21, AC-DRRRFNSAAYKGPRRRKAD-NH2] | does not significantly reduce binding affinity | – |
| Ac-DRRRFNSADAKGPRRRKAD-NH2 [SEQ ID NO: 22, AC-DRRRFNSADAKGPRRRKAD-NH2] | significantly reduced binding affinities | – |
| Ac-DRRRFNSADYAGPRRRKAD-NH2 [SEQ ID NO: 23, AC-DRRRFNSADYAGPRRRKAD-NH2] | does not significantly reduce binding affinity | – |
| Ac-DRRRFNSADYKAPRRRKAD-NH2 [SEQ ID NO: 24, AC-DRRRFNSADYKAPRRRKAD-NH2] | significantly reduced binding affinities | – |

| Compound | binding affinity to c-di-GMP, in words [2] | also measured |
| --- | --- | --- |
| Ac-DRRRFNSADYKGARRRKAD-NH2 [SEQ ID NO: 25, AC-DRRRFNSADYKGARRRKAD-NH2] | sufficiently high to bind c-di-GMP | – |
| Ac-DRRRFNSADYKGPARRKAD-NH2 [SEQ ID NO: 26, AC-DRRRFNSADYKGPARRKAD-NH2] | significantly reduced binding affinities | – |
| Ac-DRRRFNSADYKGPRARKAD-NH2 [SEQ ID NO: 27, AC-DRRRFNSADYKGPRARKAD-NH2] | significantly reduced binding affinities | – |
| Ac-DRRRFNSADYKGPRRRAAD-NH2 [SEQ ID NO: 29, AC-DRRRFNSADYKGPRRRAAD-NH2] | does not significantly reduce binding affinity | – |
| Ac-DRRRFNSADYKGPRRRKAA-NH2 [SEQ ID NO: 31, AC-DRRRFNSADYKGPRRRKAA-NH2] | significantly reduced binding affinities | – |
| Ac-DRRRFNSADYKGPRRRKLD-NH2 [SEQ ID NO: 30, AC-DRRRFNSADYKGPRRRKLD-NH2] | does not significantly reduce binding affinity | – |
| Ac-DRRRFNSADYKPRRRKAD-NH2 [SEQ ID NO: 38, AC-DRRRFNSADYKPRRRKAD-NH2] | – | decrease of c-di-GMP binding affinity compared to the peptide of SEQ ID NO: 12 [2]: about 12 fold |
| Ac-DRRRFNSADYKPRRRKAD-NH2 [compound 38] | – | Kd [2, 3]: 1950 nM |
| Ac-DRRRFNSAYKGPRRRKAD-NH2 [SEQ ID NO: 37, AC-DRRRFNSAYKGPRRRKAD-NH2] | – | decrease of c-di-GMP binding affinity compared to the peptide of SEQ ID NO: 12 [2]: 2 to 3 fold |
| Ac-DRRRFNSAYKGPRRRKAD-NH2 [compound 37] | – | Kd [2, 3]: 440 nM |
| Ac-DRRRFNSDYKGPRRRKAD-NH2 [SEQ ID NO: 36, AC-DRRRFNSDYKGPRRRKAD-NH2] | – | decrease of c-di-GMP binding affinity compared to the peptide of SEQ ID NO: 12 [2]: 2 to 3 fold |
| Ac-DRRRFNSDYKGPRRRKAD-NH2 [compound 36] | – | Kd [2, 3]: 340 nM |
| Ac-DRRRFNSLDYKGPRRRKAD-NH2 [SEQ ID NO: 20, AC-DRRRFNSLDYKGPRRRKAD-NH2] | does not significantly reduce binding affinity | – |
| Ac-DRRRFSADYKGPRRRKAD-NH2 [SEQ ID NO: 34, AC-DRRRFSADYKGPRRRKAD-NH2] | Affinity decreased further | – |
| Ac-DRRRFSADYKGPRRRKAD-NH2 [compound 34] | – | Kd [2, 3]: 1250 nM |
| Ac-DRRRNSADYKGPRRRKAD-NH2 [SEQ ID NO: 33, AC-DRRRNSADYKGPRRRKAD-NH2] | Affinity decreased further | – |
| Ac-DRRRNSADYKGPRRRKAD-NH2 [compound 33] | – | Kd [2, 3]: 1270 nM |
